Laboratory results from patent US10669268B2, “Bicyclic derivatives” (Hoffmann-La Roche Inc., priority 2012, dated 2020).
Where a name gives a salt, the structure may show the parent alone.

Molecular target: ATX (human His-tagged) (Homo sapiens (Human), UniProt Q13822)
Assay: Human ATX enzyme inhibition assay (fluorescence quenching, MR121 substrate)
Format: biochemical
Conditions: 30 nM ATX, 1 μM MR121 substrate, 30° C., pH 8.0
In short: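 Fluorescence-quenching assay using MR121 substrate at 1 μM final, incubated 15 min at 30 °C. Buffer was 50 mM Tris-HCl pH 8.0 with 140 mM NaCl, 5 mM KCl, 1 mM CaCl2, 1 mM MgCl2 and 0.01% Triton X-100.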

| Structure (SMILES) | IC50 [nM] |
| --- | --- |
| O=C(COc1ccccc1)N1C[C@@H]2CN(C(=O)c3ccc4[nH]nnc4c3)C[C@H]2C1 [Example 15.95] | 1900 |
| N#Cc1cc(OC(F)(F)F)ccc1OCC(=O)N1C[C@@H]2CN(C(=O)c3ccc4[nH]nnc4c3)C[C@H]2C1 [Example 15.96] | 74 |
| Cc1ccc(C(C)C)c(OCC(=O)N2CC[C@@H]3CN(C(=O)c4ccc5[nH]nnc5c4)C[C@@H]3CC2)c1 [Example 15.97] | 9 |
| O=C(c1ccc2[nH]nnc2c1)N1C[C@H]2CN(C(=O)c3cc4ccc(OC(F)(F)F)cc4[nH]3)C[C@@H]2C1 [Example 15.98] | 13 |
| O=C(c1ccc2[nH]nnc2c1)N1C[C@H]2CN(C(=O)c3cc4cc(OC(F)(F)F)ccc4[nH]3)C[C@@H]2C1 [Example 15.99] | 12 |
| O=C(/C=C/c1ccc([S+]([O-])C(F)(F)F)cc1)N1CC[C@@H]2CN(C(=O)c3ccc4[nH]nnc4c3)C[C@@H]2CC1 (stereo partly drawn) [Example 16, (E)-1-((3aR,8aS)-2-(1H-benzo[d][1,2,3]triazole-5-carbonyl)octahydropyrrolo[3,4-d]azepin-6(7H)-yl)-3-(4-(trifluoromethylsulfinyl)phenyl)prop-2-en-1-one] | 15 |
| O=C(CCc1ccc(OC(F)(F)F)c(F)c1)N1CC[C@@H]2CN(C(=O)c3ccc4[nH]nnc4c3)C[C@@H]2CC1 [Example 17, 1-((3aR,8aS)-2-(1H-Benzo[d][1,2,3]triazole-5-carbonyl)octahydropyrrolo[3,4-d]azepin-6(7H)-yl)-3-(3-fluoro-4-(trifluoromethoxy)phenyl)propan-1-one] | 4 |
| CN(Cc1cnn[nH]1)C(=O)N1C[C@H]2CCN(C(=O)CCc3ccc(OC(F)(F)F)cc3)CC[C@H]2C1 [Example 17.01, (3aR,8aS)-N-((1H-1,2,3-triazol-5-yl)methyl)-N-methyl-6-(3-(4-(trifluoromethoxy)phenyl)-propanoyl)octahydropyrrolo[3,4-d]azepine-2(1H)-carboxamide] | 85 |
| CN(Cc1cnn[nH]1)C(=O)N1C[C@H]2CCN(C(=O)CCc3ccc(OC(F)(F)F)c(F)c3)CC[C@H]2C1 [Example 17.02, (3aR,8aS)-N-((1H-1,2,3-triazol-5-yl)methyl)-6-(3-(3-fluoro-4-(trifluoromethoxy)phenyl)-propanoyl)-N-methyloctahydropyrrolo[3,4-d]azepine-2(1H)-carboxamide] | 101 |
| O=C(CCc1ccc(OC(F)F)cc1)N1C[C@@H]2CN(C(=O)c3ccc4[nH]nnc4c3)C[C@H]2C1 [Example 17.03, 1-[(3aR,6aR)-5-(1H-benzotriazole-5-carbonyl)-hexahydro-pyrrolo[3,4-c]pyrrol-2-yl]-3-(4-difluoromethoxy-phenyl)-propan-1-one] | 16 |
| O=C(CCc1ccc(OC(F)(F)F)cc1F)N1C[C@@H]2CN(C(=O)c3ccc4[nH]nnc4c3)C[C@H]2C1 [Example 17.04, 1-[(3aR,6aR)-5-(1H-benzotriazole-5-carbonyl)-hexahydro-pyrrolo[3,4-c]pyrrol-2-yl]-3-(2-fluoro-4-trifluoromethoxy-phenyl)-propan-1-one] | 8 |
| O=C(CCc1ccc(F)cc1C(F)(F)F)N1CC[C@@H]2CN(C(=O)c3ccc4[nH]nnc4c3)C[C@@H]2CC1 [Example 17.05, 1-((3aR,8aS)-2-(1H-benzo[d][1,2,3]triazole-5-carbonyl)octahydropyrrolo[3,4-d]azepin-6(7H)-yl)-3-(4-fluoro-2-(trifluoromethyl)phenyl)propan-1-one] | 6 |
| Cc1cc(OC(F)(F)F)ccc1CCC(=O)N1CC[C@@H]2CN(C(=O)c3ccc4[nH]nnc4c3)C[C@@H]2CC1 [Example 17.06, 1-((3aR,8aS)-2-(1H-benzo[d][1,2,3]triazole-5-carbonyl)octahydropyrrolo[3,4-d]azepin-6(7H)-yl)-3-(2-methyl-4-(trifluoromethoxy)phenyl)-propan-1-one] | 10 |
| COc1ccc(CCC(=O)N2CC[C@@H]3CN(C(=O)c4ccc5[nH]nnc5c4)C[C@@H]3CC2)cc1F [Example 17.07, 1-((3aR,8aS)-2-(1H-benzo[d][1,2,3]triazole-5-carbonyl)octahydropyrrolo[3,4-d]azepin-6(7H)-yl)-3-(3-fluoro-4-methoxyphenyl)propan-1-one] | 43 |
| CC(C)c1ccccc1CCC(=O)N1CC[C@@H]2CN(C(=O)c3ccc4[nH]nnc4c3)C[C@@H]2CC1 [Example 17.08, 1-[(3aS,8aR)-2-(1H-benzotriazole-5-carbonyl)-octahydro-pyrrolo[3,4-d]azepin-6-yl]-3-(2-isopropyl-phenyl)-propan-1-one] | 16 |
| O=C(CCc1ccc(C(F)(F)F)cn1)N1C[C@@H]2CN(C(=O)c3ccc4[nH]nnc4c3)C[C@H]2C1 [Example 17.09, 1-[(3aR,6aR)-5-(1H-benzotriazole-5-carbonyl)-hexahydro-pyrrolo[3,4-c]pyrrol-2-yl]-3-(5-trifluoromethyl-pyridin-2-yl)-propan-1-one] | 58 |
| O=C(CCc1ccc(-c2ccccc2)cn1)N1C[C@@H]2CN(C(=O)c3ccc4[nH]nnc4c3)C[C@H]2C1 [Example 17.10, 1-[(3aR,6aR)-5-(1H-benzotriazole-5-carbonyl)-hexahydro-pyrrolo[3,4-c]pyrrol-2-yl]-3-(5-phenyl-pyridin-2-yl)-propan-1-one] | 21 |
| O=C(CCc1ccc(-c2ccncc2)cc1)N1C[C@@H]2CN(C(=O)c3ccc4[nH]nnc4c3)C[C@H]2C1 [Example 17.11, 1-[(3aR,6aR)-5-(1H-benzotriazole-5-carbonyl)-hexahydro-pyrrolo[3,4-c]pyrrol-2-yl]-3-(4-pyridin-4-yl-phenyl)-propan-1-one] | 28 |
| O=C(CCc1ccc(-c2cccnc2)cc1)N1C[C@@H]2CN(C(=O)c3ccc4[nH]nnc4c3)C[C@H]2C1 [Example 17.12, 1-[(3aR,6aR)-5-(1H-benzotriazole-5-carbonyl)-hexahydro-pyrrolo[3,4-c]pyrrol-2-yl]-3-(4-pyridin-3-yl-phenyl)-propan-1-one] | 32 |
| O=C(CCc1ccc(-c2ccccn2)cc1)N1C[C@@H]2CN(C(=O)c3ccc4[nH]nnc4c3)C[C@H]2C1 [Example 17.13, 1-[(3aR,6aR)-5-(1H-benzotriazole-5-carbonyl)-hexahydro-pyrrolo[3,4-c]pyrrol-2-yl]-3-(4-pyridin-2-yl-phenyl)-propan-1-one] | 31 |
| O=C(CCc1ccc(OC(F)(F)F)cc1)N1CC[C@@H]2CN(C(=O)NCCc3cnn[nH]3)C[C@@H]2CC1 [Example 17.14, (3aS,8aR)-6-[3-(4-trifluoromethoxy-phenyl)-propionyl]-octahydro-pyrrolo[3,4-d]azepine-2-carboxylic acid [2-(3H-[1,2,3]triazol-4-yl)-ethyl]-amide] | 464 |
| O=C(CCc1cc(Cl)cc(C(F)(F)F)c1)N1CC[C@@H]2CN(C(=O)c3ccc4[nH]nnc4c3)C[C@@H]2CC1 [Example 17.17, 1-((3aR,8aS)-2-(1H-benzo[d][1,2,3]triazole-5-carbonyl)octahydropyrrolo[3,4-d]azepin-6(7H)-yl)-3-(3-chloro-5-(trifluoromethyl)phenyl)propan-1-one] | 4 |
| COc1ccc(CCC(=O)N2CC[C@@H]3CN(C(=O)c4ccc5[nH]nnc5c4)C[C@@H]3CC2)c(C(F)(F)F)c1 [Example 17.18, 1-((3aR,8aS)-2-(1H-benzo[d][1,2,3]triazole-5-carbonyl)octahydropyrrolo[3,4-d]azepin-6(7H)-yl)-3-(4-methoxy-2-(trifluoromethyl)phenyl)propan-1-one] | 14 |
| O=C(CCc1ccccc1C1CC1)N1CC[C@@H]2CN(C(=O)c3ccc4[nH]nnc4c3)C[C@@H]2CC1 [Example 17.19, 1-((3aR,8aS)-2-(1H-benzo[d][1,2,3]triazole-5-carbonyl)octahydropyrrolo[3,4-d]azepin-6(7H)-yl)-3-(2-cyclopropylphenyl)propan-1-one] | 12 |
| COc1cc(CCC(=O)N2C[C@@H]3CN(C(=O)c4ccc5[nH]nnc5c4)C[C@H]3C2)cc(OC(F)(F)F)c1 [Example 17.20, 1-[(3aR,6aR)-5-(1H-benzotriazole-5-carbonyl)-1,3,3a,4,6,6a-hexahydropyrrolo[3,4-c]pyrrol-2-yl]-3-[3-methoxy-5-(trifluoromethoxy)phenyl]propan-1-one] | 2 |
| O=C(/C=C/c1ccc(OC(F)(F)F)cc1)N1CC[C@@H]2CN(C(=O)[C@@H]3Cc4[nH]cnc4CN3)C[C@@H]2CC1 [Example 18, (E)-3-[4-(Trifluoro-methoxy)-phenyl]-1-[(3aS,8aR)-2-((S)-4,5,6,7-tetrahydro-1H-imidazo[4,5-c]pyridine-6-carbonyl)-octahydro-pyrrolo[3,4-d]azepin-6-yl]-prop-2-en-1-one hydrochloride] | 6740 |
| Cc1ccc(C(C)C)c(OCC(=O)N2C[C@@H]3CN(C(=O)c4ccc5[nH]nnc5c4)C[C@H]3C2)c1 [Example 19, 1-[(3aS,6aS)-5-(1H-benzotriazole-5-carbonyl)-hexahydro-pyrrolo[3,4-c]pyrrol-2-yl]-2-(2-isopropyl-5-methyl-phenoxy)-ethanone] | 7 |
| O=C(COc1ccc(OC(F)(F)F)cc1Br)N1C[C@@H]2CN(C(=O)c3ccc4[nH]nnc4c3)C[C@H]2C1 [Example 19.01, 1-[(3aS,6aS)-5-(1H-benzotriazole-5-carbonyl)-hexahydro-pyrrolo[3,4-c]pyrrol-2-yl]-2-(2-bromo-4-trifluoromethoxy-phenoxy)-ethanone] | 12 |
| O=C(c1ccc(-c2ccc(Cl)cc2)cc1)N1C[C@@H]2CN(C(=O)c3ccc4[nH]nnc4c3)C[C@H]2C1 [Example 19.02, (1H-benzotriazol-5-yl)-[(3aR,6aR)-5-(4′-chloro-biphenyl-4-carbonyl)-hexahydro-pyrrolo[3,4-c]pyrrol-2-yl]-methanone] | 7 |
